Data on six compounds can be found in patent publication US10799473B2, “Methods of inhibiting IGF-1R activation or downtream signalling thereof to reduce radiation-induced cellular senescence” (The Henry M. Jackson Foundation for the Advancement of …, priority 2013, dated 2020).

Test [1] concerns Human pulmonary artery endothelial cells (HPAEC). The test can be described thus: Senescence-associated β-galactosidase (SA-β-gal) assay in X-ray irradiated HPAEC. It counts as cell-based. The following applies: HPAEC pretreated 30 minutes with inhibitor (AG1024 5 μM, Ly294002 20 μM, rapamycin 500 nM, U0126 10 μM), 10 Gy X-rays, 4 days post-irradiation. How it is done: Cell Culture and Reagents. Human pulmonary artery endothelial cells (HPAEC) were obtained from Cell Applications, Inc. (San Diego, Calif.) and cultured in EBM-2 basal medium containing supplements and growth factors as indicated in the manufacturer's protocol (Lonza, Walkersville, Md.). Cells were maintained at 37° C. in a humidified atmosphere containing 5% CO2. Subconfluent HPAEC at passages 4-8 were used for all experiments. The following chemical inhibitors and their final concentrations were used: […] 20 mM N-acetyl cysteine (NAC) was dissolved in distilled H2O. Cell Irradiation: HPAEC were either irradiated or sham-irradiated at subconfluence (70-90%). Irradiations were conducted using RS2000 Biological Irradiator (Rad Source Technologies, Alpharetta, Ga.) with 0 3 mm Cu shielding at a dose rate of 2.4 Gy/min (160 kV, 25 mA) at room temperature. Senescence-associated fl-galactosidase (SA-β-gal) Assay. SA-β-gal assay was performed according to established protocols with minor modifications (Dimri, Lee et al. 1995; Bandyopadhyay, Gatza et al. 2005). To avoid density-dependent false positive expression of SA-β-gal, HPAEC were seeded at a density of 1.0-2.0×10^4 on 12-well or 6-well dishes and allowed to reach 50-70% confluence prior to treatment. At indicated time-points postirradiation, cells were washed twice in ice cold PBS, fixed in 2% formaldehyde/0.2% glutaraldehyde in PBS for 5 min at room temperature and washed again twice in ice-cold PBS. 1.5-2 ml of freshly prepared X-gal staining solution (1 mg/ml of 5-bromo-4-chloro-3-indolyl β-D-galactoside in 40 mM citric acid/sodium phosphate, pH 6.0 (made by mixing 36.85 parts 0.1 M citric acid solution with 63.15 parts 0.2 M sodium phosphate solution and then verifying pH to be 6.0, 0.1M citric acid was added to adjust pH when necessary), 5 mM potassium ferrocyanide, 5 mM potassium ferricyanide, 150 mM NaCl, 2 mM MgCl2) was then added to the culture dishes and the dishes were incubated for 12-20 h at 37° C. (without CO2). After incubation, cells were washed twice in ice-cold PBS and once in methanol and allowed to dry. Cells were examined for perinuclear blue staining indicative of SA-β-gal activity in at least 3 random fields.

Test [2] concerns caspase-3. The test can be described thus: Western blotting for cleaved caspase-3 in irradiated HPAEC (radiation-induced apoptosis). It counts as cell-based, human. Conditions: 6 hours post-irradiation. How it is done:
(§1) Cell Culture and Reagents. Human pulmonary artery endothelial cells (HPAEC) were obtained from Cell Applications, Inc. (San Diego, Calif.) and cultured in EBM-2 basal medium containing supplements and growth factors as indicated in the manufacturer's protocol (Lonza, Walkersville, Md.). Cells were maintained at 37° C. in a humidified atmosphere containing 5% CO2. Subconfluent HPAEC at passages 4-8 were used for all experiments. The following chemical inhibitors and their final concentrations were used: AG1024 (5 μM, EMD Millipore, Billerica, Mass.), U0126 (10 μM), Ly294002 (20 μM), rapamycin (500 nM). […] 20 mM N-acetyl cysteine (NAC) was dissolved in distilled H2O.
(§2) Cell Irradiation: HPAEC were either irradiated or sham-irradiated at subconfluence (70-90%). Irradiations were conducted using RS2000 Biological Irradiator (Rad Source Technologies, Alpharetta, Ga.) with 0 3 mm Cu shielding at a dose rate of 2.4 Gy/min (160 kV, 25 mA) at room temperature.
(§3) Western blotting. […]
(§4) Protein concentrations from whole cell lysates were determined using Protein® BCA Protein Assay Kit (Thermo Scientific, Rockford, Ill.). […] Proteins were detected with horseradish peroxidase-linked secondary antibodies and SuperSignal® West Pico Chemiluminescent Substrate (Pierce, Rockford, Ill.). […]
(Immunoblotting shows a protein as a band on a membrane.)

In test [3] the test system is IGF-1R. The test can be described thus: Western blotting for IGF-1R phosphorylation in H2O2-treated HPAEC. It counts as cell-based, human. The protocol:
as §1, §3, §4
(§5) Radiation-induced reactive oxygen species (ROS) are required for early IGF-1R phosphorylation. […] We then determined whether this ROS-induced phosphorylation is ligand-dependent by treating the cells with H2O2 in the presence of AG1024 and blotting for phosphorylated IGF-1R. […]

Test [4] deals with S6 ribosomal protein (Ser 235/236). The test can be described thus: Western blotting for phosphorylated S6 ribosomal protein (Ser 235/236) in irradiated HPAEC. It is filed as cell-based, human. Conditions: 5 μM AG1024, 10 Gy X-rays, 72 hours post-irradiation. The protocol: as §1, §2, §3, §4
Test [5] deals with Human pulmonary artery endothelial cells (HPAEC). The test can be described thus: Cell morphology / cellular volume of X-ray irradiated HPAEC. Conditions: inhibitor pretreatment (AG1024 5 μM, Ly294002 20 μM, rapamycin 500 nM), 10 Gy X-rays, within 96 h. It counts as cell-based. The protocol:
as §1, §2
Senescence-associated fl-galactosidase (SA-β-gal) Assay. SA-β-gal assay was performed according to established protocols with minor modifications (Dimri, Lee et al. 1995; Bandyopadhyay, Gatza et al. 2005). To avoid density-dependent false positive expression of SA-β-gal, HPAEC were seeded at a density of 1.0-2.0×10^4 on 12-well or 6-well dishes and allowed to reach 50-70% confluence prior to treatment. […]

Test [6] relates to Akt S473. The test can be described thus: Western blotting for phosphorylated Akt (S473) in irradiated HPAEC. It counts as cell-based, human. Conditions: 5 μM AG1024, 10 Gy X-rays, 3 hours post-irradiation. How it is done: as §1, §2, §3, §4
The test system of test [7] is p53 and p21/wafl. The test can be described thus: Western blotting for p53 and p21/wafl expression in irradiated HPAEC. It counts as cell-based, human. The following applies: western blot. How it is done:
as §1, §2, §3, §4

Test [8] deals with IGF-1R. The test can be described thus: Western blotting for IGF-1R phosphorylation in X-ray irradiated HPAEC. The following applies: 20 mM NAC 1 hour, 10 Gy X-rays, 3 hours post-irradiation. It counts as cell-based, human. How it is done:
as §1
Cell Irradiation: HPAEC were either irradiated or sham-irradiated at subconfluence (70-90%). […]
as §4, §5

“Also recorded” adds a separate entry of the source.

As to `N#CC(=C(/N)Sc1ccccc1N)/C(C#N)=C(\N)Sc1ccccc1N` [U0126], in test [1], the “radiation-induced accelerated senescence (SA-β-gal activity, percentage of SA-β-gal positive cells)” value is “did not rescue cells from undergoing accelerated senescence”.

Turning to “IGF-1: exogenous IGF-1 (IGF-1R activator), activating ligand of IGF-1R”, the “levels of active (cleaved) caspase-3, radiation-induced apoptosis” value in test [2] (exogenous IGF-1 50 ng/ml 18 hours, X-rays (10 Gy in legend, 50 Gy in text)) is given as “does not regulate; also recorded: did not alter”.

With `OO` [H2O2], the “IGF-1R phosphorylation induced by H2O2 alone” value in test [3] (H2O2 1 μM and 10 μM, 20 minutes) is reported as “sufficient to induce IGF-1R phosphorylation”.

Take `CC(C)(C)c1cc(C=C(C#N)C#N)cc(Br)c1O` [AG1024]: the “phosphorylation of S6 ribosomal protein (Ser 235/236)” value in test [4] is given as “significantly reduced”. The “cellular morphology / change in cellular volume after radiation exposure” value in test [5] was “prevented the change in cellular volume”. Also, the “radiation-induced phosphorylation of Akt S473” value in test [6] was “had no effect”. Moreover, the “radiation-induced p53 and p21/wafl expression” value in test [7] (5 μM AG1024, 10 Gy X-rays) is “suppression”. In addition, in test [2] (5 μM AG1024 30 minutes, 50 Gy X-rays), the “levels of active (cleaved) caspase-3, radiation-induced apoptosis” value is recorded as “does not regulate; also recorded: did not alter”. Further, the “ROS (H2O2)-induced IGF-1R phosphorylation in presence of inhibitor” value in test [3] (5 μM AG1024 30 minutes, then 10 μM H2O2 20 minutes) was “not inhibited”. Moreover, the “radiation-induced accelerated senescence (SA-β-gal activity, percentage of SA-β-gal positive cells)” value in test [1] is “Attenuation; also recorded: significantly reduced cellular senescence”.

In the case of `O=c1cc(N2CCOCC2)oc2c(-c3ccccc3)cccc12` [LY294002, 2-(4-Morpholinyl)-8-phenyl-4H-chromen-4-one], the “cellular morphology / change in cellular volume after radiation exposure” value in test [5] is “maintenance of normal cellular morphology”. In addition, the “radiation-induced p21/wafl expression” value in test [7] (500 nM rapamycin or 20 μM Ly294002, 10 Gy X-rays) is listed as “attenuated”. In addition, the “radiation-induced accelerated senescence (SA-β-gal activity, percentage of SA-β-gal positive cells)” value in test [1] is recorded as “attenuated”; in test [1] (listed as Ly294002) it was “Attenuation”.

`CC(=O)N[C@@H](CS)C(=O)O` [NAC, N-acetyl-L-cysteine]: the “IR-induced IGF-1R phosphorylation” value in test [8] is listed as “attenuated”.
